According to patent publication US20260055061A1, “HALOPHTHALIMIDE COMPOUNDS AND METHODS OF USE AGAINST TBI, INFLAMMATORY DISORDER, AUTOIMMUNE DISORDER, NEURODEGENERATIVE DISEASE OR VIRAL INFECTION” (The United States of America, as represented by the …, priority 2022, published 2026):

How the values were obtained:
[1] = tested on: LPS-induced nitrite in RAW 264.7 cells; test: LPS-induced nitrite production in RAW 264.7 cells (Griess reagent / fluorometric kit); assay type: cell-based, mouse; conditions: for Nitrite, % Change versus Control (± s.e.m.): 10 uM; for nitrite level, % of vehicle control: LPS-challenged RAW 264.7 cells, percentage of vehicle control value (control = 100%), mean ± S.E.M., n = 3; for nitrite inhibitory activity (comparison in words): tetrafluoro vs corresponding difluoro or stereoisomer
Method: Nitrite ion detection in drug treated […] cell culture media: To measure the levels of nitrite ion NO2—) the Griess Reagent System (Promega, Madison, WI, Cat #G2930) was utilized. The protocol followed was that recommended by the manufacturer. In brief a NO2— ion standard curve was prepared in culture media of the same composition to that used for the cell culture study. The concentration range of the standard curve was from 1.5 µM to 100 µM. Equal volumes (50 μL) of standards and unknown samples were added to clear 96 well plates in duplicate. Then 50 μL of sulfanilamide solution was added to each well and the plate was covered and incubated in the dark for 10 min. After the incubation period 50 μL of N-1-napthylethylenediamine dihydrochloride solution was added to each well and the plate was incubated in dark for a further 10 min. After this incubation, the plate was read at 550 nm on a SPECTRAmax PLUS plate reader and the absorbances were used to generate a NO2— standard curve and the NO2— ion levels of the unknown samples are determined using SoftMax Pro V5, Molecular Devices.
Most neurons are highly vulnerable to RNS and ROS. Nitric oxide (NO) is one of RNSs, which is very short lived and cannot be readily measured. However, nitrite is a stable end product of nitric oxide metabolism. Therefore, nitrite acts as a surrogate measure of NO. The Griess Reagent System (Promega Corporation, Madison, WI) can be applied to measure nitrite levels in culture media following the manufacturer's protocol, and this system was used in the present study as it is a more sensitive assay compared to quantifying actions on TNF-α by ELISA assay. […] This challenge induces high level of TNF-α protein accompanied by a robust generation of nitrite.
(§1) Cells were propagated as described by ATCC guidelines.

[2] = tested on: RAW 264.7 cells; test: Cell viability of drug treated RAW 264.7 cells (CellTiter 96 AQueous One, MTS); conditions: for Viability, % Change versus Control (± s.e.m.): 10 uM; for Cell Viability % Δ: 1 μM, RAW 264.7 cells, percentage of vehicle control value, mean ± S.E.M., n = 3
[3] = tested on: TNF-α; test: LPS-induced TNF-α production in RAW 264.7 cells (ELISA); assay type: cell-based, mouse; conditions: for TNF-a, % Change versus Control (± s.e.m.): 10 uM; for TNF-α % Δ: LPS-challenged RAW 264.7 cells, percentage of vehicle control value (control = 100%), mean ± S.E.M., n = 3
Method: Enzyme-linked immunosorbent assay for TNF-α protein: Media TNF-α levels were measured by use of the Biolegend ELISA MAX Set Delux ELISA (#430904). The protocol used was that recommended by the manufacturer. In brief, a day prior to performing the assay, a 96 well plate was coated with a capture antibody directed against TNF-α. The following day the assay plate was washed and blocked with the kit blocking agent for 1 h while being mixed on a plate shaker at 200 rpm (all incubations were mixed at 200 rpm unless stated otherwise). A TNF-α protein standard curve was prepared in the assay diluent following the kit instructions and unknown media samples were likewise diluted in the same assay diluent. After blocking, the plate was washed and then both the standards and unknown media samples were added to the plate in duplicate. The standards and unknown samples were incubated for 2 h. After the incubation, the plate was washed and then the biotin labeled detection antibody was added to each well and incubated for a further 1 h. After this incubation, the avidin-HRP conjugate complex was added to each well and incubated for 30 min. The plate was washed and the chromogenic substrate 3,3′,5,5′-tetramethylbenzidine solution was added to each well. At this point the plate was covered and incubated in the dark for 15 min, with no mixing. After 15 min the chromogenic reaction was stopped by the addition of 2 N H2SO4 and the absorbance was read at 450 nm and for background subtractions at 570 nm, on a SPECTRAmax PLUS plate reader. The absorbances were used to generate a TNF-α a protein standard curve and the protein levels in the unknown samples were determined using SoftMax Pro V5, Molecular Devices.
as §1

[4] = LPS-activated RAW 264.7 cells (Table 9)

SMILES	Nitrite, % Change versus Control (± s.e.m.) [1, 4]	Viability, % Change versus Control (± s.e.m.) [2, 4]	TNF-a, % Change versus Control (± s.e.m.) [3, 4]	Nitrite, % Change versus Control (± s.e.m.) ([1]; LPS-activated RAW 264.7 cells)	Viability, % Change versus Control (± s.e.m.) ([2]; LPS-activated RAW 264.7 cells)	nitrite level, % of vehicle control ([1]; 1 μM)	TNF-α % Δ ([3]; 1 μM)	also measured
Nc1ccc(F)c2c1C(=O)N(C1CCC(=O)NC1=O)C2=O (centres unmarked) [drawing 91]	86 ± 3.9 (N.S.) %	102 ± 0.8 (N.S.) %	98 ± 1.5 (N.S.) %	–	–	–	–	–
CC(C)Nc1ccc(F)c2c1C(=O)N(C1CCC(=O)NC1=O)C2=O (centres unmarked) [Compound 25, 2-(2,6-dioxopiperidin-3-yl)-4-fluoro-7-(isopropylamino) isoindoline-1,3-dione]	–	–	–	110.1 ± 4.4%	99.9 ± 0.4%	–	–	TNF-a, % Change versus Control (± s.e.m.) ([3]; LPS-activated RAW 264.7 cells): 87.1 ± 3.4%
CC1(C)[C@H]2CC[C@@H](CN3C(=O)c4c(F)c(F)c(F)c(F)c4C3=O)[C@@H]1C2 [Compound 13, 2-(((1S,2R,5S)-6,6-dimethylbicyclo[3.1.1]heptan-2-yl)methyl)-4,5,6,7-tetrafluoroisoindoline-1,3-dione]	–	–	–	–	–	31 ± 3%	62 ± 3%	nitrite inhibitory activity (comparison in words) ([1]; 1 μM): more potent nitrite inhibitory activity; Cell Viability % Δ [2]: 78 ± 3%
Nc1ccc(F)c2c1C(=O)N(C1CCC(=O)NC1=O)C2=O (centres unmarked) [Compound 26, 4-amino-2-(2,6-dioxopiperidin-3-yl)-7-fluoroisoindoline-1,3-dione]	–	–	–	90.3 ± 3.7%	100.9 ± 1.1%	–	–	–
Nc1cccc2c1C(=S)N(C1CCC(=S)NC1=O)C2=O (centres unmarked) [drawing 90]	43 ± 1.0 (N.S.) $ %	92 ± 1.8 (N.S.) %	113 ± 5.4 (N.S.) %	–	–	–	–	–
C[C@H]1[C@H](N2C(=O)c3c(F)c(F)c(F)c(F)c3C2=O)C[C@@H]2C[C@H]1C2(C)C [Compound 11, 4,5,6,7-Tetrafluoro-2-((1R,2R,3R,5S)-2,6,6-trimethylbicyclo[3.1.1]heptan-3-yl) isoindoline-1,3-dione]	–	–	–	–	–	48 ± 2%	76 ± 2%	nitrite inhibitory activity (comparison in words) ([1]; 1 μM): more potent nitrite inhibitory activity; Cell Viability % Δ [2]: 90 ± 4%
Nc1c(F)ccc2c1C(=O)N(C1CCC(=O)NC1=O)C2=O (centres unmarked) [drawing 93]	100 ± 5.5 (N.S.) %	90 ± 2.6 (N.S.) %	93 ± 4.1 (N.S.) %	–	–	–	–	–
Nc1ccc(F)c2c1C(=S)N(C1CCC(=S)NC1=O)C2=O (centres unmarked) [drawing 92]	22 ± 1.7 ( **** ) %	95 ± 3.0 (N.S.) %	109 ± 2.4 (N.S.) %	–	–	–	–	–
Nc1ccc(F)c2c1C(=O)N(C1CCC(=S)NC1=O)C2=O (centres unmarked) [Compound 29, 4-amino-7-fluoro-2-(2-oxo-6-thioxopiperidin-3-yl) isoindoline-1,3-dione]	–	–	–	59.0 ± 1.6%	112.4 ± 2.9%	–	–	–
O=C1c2c(F)ccc(F)c2C(=O)N1C1CC2CCC1C2 (stereo not drawn) [Compound 21, 2-Exo-(bicyclo[2.2.1]heptan-2-yl)-4,7-difluoroisoindoline-1,3-dione]	–	–	–	–	–	98 ± 7%	90 ± 1%	nitrite level, % of vehicle control ([1]; 10 μM): 127 ± 2%; nitrite level, % of vehicle control ([1]; 30 μM): 83 ± 10%; TNF-α % Δ ([3]; 10 μM): 90 ± 1%
